From ChEMBL document CHEMBL1201862, “PubChem BioAssay data set” (2004)
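Step 1: Grow cells in 96-well plates. Step 2: Expose to compound for 48 hours at 5 concentrations. Step 3: Interpolate endpoints linearly; if unreached, use highest concentration. The concentration for 50% growth inhibition is given as GI50.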 Activity calls are given as the source filed them. Cut-off read from the data, not from the text of the source: active = GI50 up to about 1.1 µM and inactive = higher.

Experiments:
Assay in all cases: NCI tumour cell line growth inhibition, 48 h
EKVX = system: EKVX
BT-549 = system: BT-549
Malme-3M = system: Malme-3M
U-251 = system: U-251
RPMI-8226 = system: RPMI-8226
HOP-92 = system: HOP-92
NCI-H23 = system: NCI-H23
COLO 205 = system: COLO 205
Hs-578T = system: Hs-578T
T47D = system: T47D
NCI/ADR-RES = system: NCI/ADR-RES
SK-MEL-2 = system: SK-MEL-2
ACHN = system: ACHN
UO-31 = system: UO-31
CAKI-1 = system: CAKI-1
DU-145 = system: DU-145
NCI-H522 = system: NCI-H522
IGROV-1 = system: IGROV-1
PC-3 = system: PC-3
M14 = system: M14
K562 = system: K562
SNB-75 = system: SNB-75
HCC 2998 = system: HCC 2998
SK-MEL-28 = system: SK-MEL-28
HCT-116 = system: HCT-116
NCI-H226 = system: NCI-H226
HL-60 = system: HL-60
OVCAR-3 = system: OVCAR-3
KM12 = system: KM12
MDA-N = system: MDA-N
SW-620 = system: SW-620
A549 = system: A549
NCI-H460 = system: NCI-H460
MDA-MB-231 = system: MDA-MB-231
SF-295 = system: SF-295
SR = system: SR
OVCAR-5 = system: OVCAR-5
MDA-MB-435 = system: MDA-MB-435
OVCAR-8 = system: OVCAR-8
CCRF-CEM = system: CCRF-CEM
SK-MEL-5 = system: SK-MEL-5
HCT-15 = system: HCT-15
SK-OV-3 = system: SK-OV-3
MOLT-4 = system: MOLT-4
RXF 393 = system: RXF 393
TK-10 = system: TK-10
OVCAR-4 = system: OVCAR-4
UACC-257 = system: UACC-257
SNB-19 = system: SNB-19
UACC-62 = system: UACC-62
SF-539 = system: SF-539
A498 = system: A498
MCF7 = system: MCF7
786-0 = system: 786-0
LOX IMVI = system: LOX IMVI
HT-29 = system: HT-29
SF-268 = system: SF-268
HOP-62 = system: HOP-62
SN12C = system: SN12C

CN(CCO)CC(=O)CC(O)(C(F)(F)F)C(F)(F)F
GI50 (EKVX): 31.2 µM (inactive) | GI50 (BT-549): 43.7 µM (inactive) | GI50 (Malme-3M): 34.7 µM (inactive) | GI50 (U-251): 28.6 µM (inactive) | GI50 (RPMI-8226): 32.1 µM (inactive) | GI50 (HOP-92): 22.5 µM (inactive) | GI50 (NCI-H23): 23.6 µM (inactive) | GI50 (COLO 205): 35.3 µM (inactive) | GI50 (Hs-578T): 21.3 µM (inactive) | GI50 (T47D): 28.4 µM (inactive) | GI50 (NCI/ADR-RES): 41 µM (inactive) | GI50 (SK-MEL-2): 33 µM (inactive) | GI50 (ACHN): 27.7 µM (inactive) | GI50 (UO-31): 39.1 µM (inactive) | GI50 (CAKI-1): 30.1 µM (inactive) | GI50 (DU-145): 42.7 µM (inactive) | GI50 (NCI-H522): 40.2 µM (inactive) | GI50 (IGROV-1): 43.2 µM (inactive) | GI50 (PC-3): 26.2 µM (inactive) | GI50 (M14): 32.5 µM (inactive) | GI50 (K562): 42.4 µM (inactive) | GI50 (SNB-75): 14.5 µM (inactive) | GI50 (HCC 2998): 56.2 µM (inactive) | GI50 (SK-MEL-28): 42.6 µM (inactive) | GI50 (HCT-116): 30.8 µM (inactive) | GI50 (NCI-H226): 36.3 µM (inactive) | GI50 (HL-60): 26.4 µM (inactive) | GI50 (OVCAR-3): 26.5 µM (inactive) | GI50 (KM12): 39.8 µM (inactive) | GI50 (MDA-N): 32.1 µM (inactive) | GI50 (SW-620): 34.9 µM (inactive) | GI50 (A549): 30.4 µM (inactive) | GI50 (NCI-H460): 27.5 µM (inactive) | GI50 (MDA-MB-231): 29.7 µM (inactive) | GI50 (SF-295): 30 µM (inactive) | GI50 (SR): 40.8 µM (inactive) | GI50 (OVCAR-5): 52.5 µM (inactive) | GI50 (MDA-MB-435): 36 µM (inactive) | GI50 (OVCAR-8): 41.3 µM (inactive) | GI50 (CCRF-CEM): 32.1 µM (inactive) | GI50 (SK-MEL-5): 16.3 µM (inactive) | GI50 (HCT-15): 33.3 µM | GI50 (SK-OV-3): 26.4 µM (inactive) | GI50 (MOLT-4): 52.6 µM (inactive) | GI50 (RXF 393): 19.5 µM (inactive) | GI50 (TK-10): 35.4 µM (inactive) | GI50 (OVCAR-4): 50 µM (inactive) | GI50 (UACC-257): 37.6 µM (inactive) | GI50 (SNB-19): 41.4 µM (inactive) | GI50 (UACC-62): 35.6 µM (inactive) | GI50 (SF-539): 34.7 µM (inactive) | GI50 (A498): 44.6 µM (inactive) | GI50 (MCF7): 46.2 µM (inactive) | GI50 (786-0): 32.6 µM (inactive) | GI50 (LOX IMVI): 31.4 µM (inactive) | GI50 (HT-29): 30.7 µM (inactive)

COC1(OC)C=CC(=O)C=C1
GI50 (EKVX): 6.78 µM (inactive) | GI50 (BT-549): 3.55 µM (inactive) | GI50 (Malme-3M): < 0.01 µM (active) | GI50 (U-251): 1.78 µM (inactive) | GI50 (RPMI-8226): 2.74 µM (inactive) | GI50 (HOP-92): 4.43 µM (inactive) | GI50 (NCI-H23): 2.66 µM (inactive) | GI50 (COLO 205): 7.69 µM (inactive) | GI50 (Hs-578T): 9.84 µM (inactive) | GI50 (T47D): 3.22 µM (inactive) | GI50 (NCI/ADR-RES): 4.2 µM (inactive) | GI50 (SK-MEL-2): 6.81 µM (inactive) | GI50 (SF-268): 4.09 µM (inactive) | GI50 (ACHN): 2.54 µM (inactive) | GI50 (UO-31): 1.89 µM (inactive) | GI50 (CAKI-1): 3.61 µM (inactive) | GI50 (DU-145): 3.48 µM (inactive) | GI50 (NCI-H522): 0.149 µM (active) | GI50 (IGROV-1): 1.72 µM (inactive) | GI50 (PC-3): 3.27 µM (inactive) | GI50 (M14): 3.3 µM (inactive) | GI50 (K562): 2.2 µM (inactive) | GI50 (SNB-75): 11 µM (inactive) | GI50 (HCC 2998): 3.68 µM (inactive) | GI50 (SK-MEL-28): 1.85 µM (inactive) | GI50 (HCT-116): 1.3 µM (inactive) | GI50 (NCI-H226): 2.61 µM (inactive) | GI50 (HL-60): 3.15 µM (inactive) | GI50 (OVCAR-3): 4.2 µM (inactive) | GI50 (KM12): 7.52 µM (inactive) | GI50 (MDA-N): 7.41 µM (inactive) | GI50 (SW-620): 1.45 µM (inactive) | GI50 (A549): 5.85 µM (inactive) | GI50 (NCI-H460): 6.61 µM (inactive) | GI50 (MDA-MB-231): 2.9 µM (inactive) | GI50 (HOP-62): 10.6 µM (inactive) | GI50 (SF-295): 11 µM (inactive) | GI50 (SR): 0.843 µM (active) | GI50 (OVCAR-5): 10.4 µM (inactive) | GI50 (MDA-MB-435): 3.31 µM (inactive) | GI50 (OVCAR-8): 1.83 µM (inactive) | GI50 (CCRF-CEM): 0.446 µM (active) | GI50 (SK-MEL-5): 2.8 µM (inactive) | GI50 (HCT-15): 4.17 µM | GI50 (SK-OV-3): 13 µM (inactive) | GI50 (MOLT-4): 2.33 µM (inactive) | GI50 (RXF 393): 0.701 µM (active) | GI50 (SN12C): 7.48 µM (inactive) | GI50 (TK-10): 2.69 µM (inactive) | GI50 (OVCAR-4): 3.05 µM (inactive) | GI50 (UACC-257): 2.4 µM (inactive) | GI50 (SNB-19): 15.7 µM (inactive) | GI50 (UACC-62): 1.82 µM (inactive) | GI50 (SF-539): 1.74 µM (inactive) | GI50 (A498): 32.6 µM (inactive) | GI50 (MCF7): 1.3 µM (inactive) | GI50 (786-0): 1.9 µM (inactive) | GI50 (LOX IMVI): 0.667 µM (active) | GI50 (HT-29): 3.11 µM (inactive)

Cc1cccc2c(NCCCN(C)C)c3c([N+](=O)[O-])ccc(C)c3nc12
GI50 (EKVX): 0.0855 µM (active) | GI50 (BT-549): 0.256 µM (active) | GI50 (Malme-3M): 0.175 µM (active) | GI50 (U-251): 0.147 µM (active) | GI50 (RPMI-8226): 0.19 µM (active) | GI50 (HOP-92): 0.0916 µM (active) | GI50 (NCI-H23): 0.034 µM (active) | GI50 (COLO 205): 0.0802 µM (active) | GI50 (Hs-578T): 0.439 µM (active) | GI50 (T47D): 0.0879 µM (active) | GI50 (NCI/ADR-RES): 0.337 µM (active) | GI50 (SK-MEL-2): 0.132 µM (active) | GI50 (SF-268): 0.198 µM (active) | GI50 (ACHN): 0.0908 µM (active) | GI50 (UO-31): 0.216 µM (active) | GI50 (CAKI-1): 0.2 µM (active) | GI50 (DU-145): 0.0887 µM (active) | GI50 (NCI-H522): < 0.0326 µM (active) | GI50 (IGROV-1): 0.0574 µM (active) | GI50 (PC-3): 0.0494 µM (active) | GI50 (M14): 0.132 µM (active) | GI50 (K562): 0.115 µM (active) | GI50 (SNB-75): 0.186 µM (active) | GI50 (HCC 2998): < 0.0255 µM (active) | GI50 (SK-MEL-28): 2.32 µM (inactive) | GI50 (HCT-116): 0.1 µM (active) | GI50 (NCI-H226): 0.194 µM (active) | GI50 (HL-60): 0.203 µM (active) | GI50 (OVCAR-3): 0.109 µM (active) | GI50 (KM12): 0.103 µM (active) | GI50 (MDA-N): 0.196 µM (active) | GI50 (SW-620): 0.0659 µM (active) | GI50 (A549): 0.101 µM (active) | GI50 (NCI-H460): < 0.0241 µM (active) | GI50 (MDA-MB-231): 0.217 µM (active) | GI50 (HOP-62): 0.047 µM (active) | GI50 (SF-295): 0.0689 µM (active) | GI50 (SR): < 0.0154 µM (active) | GI50 (OVCAR-5): 0.264 µM (active) | GI50 (MDA-MB-435): 0.191 µM (active) | GI50 (OVCAR-8): 0.206 µM (active) | GI50 (CCRF-CEM): 0.423 µM (active) | GI50 (SK-MEL-5): 0.082 µM (active) | GI50 (HCT-15): 0.0435 µM | GI50 (SK-OV-3): 0.278 µM (active) | GI50 (MOLT-4): 0.0178 µM (active) | GI50 (RXF 393): 0.0647 µM (active) | GI50 (SN12C): 0.221 µM (active) | GI50 (TK-10): 0.252 µM (active) | GI50 (OVCAR-4): 0.0628 µM (active) | GI50 (UACC-257): 0.192 µM (active) | GI50 (SNB-19): 0.192 µM (active) | GI50 (UACC-62): 0.144 µM (active) | GI50 (SF-539): 0.263 µM (active) | GI50 (A498): < 0.01 µM (active) | GI50 (MCF7): < 0.0161 µM (active) | GI50 (786-0): 0.0689 µM (active) | GI50 (LOX IMVI): 0.197 µM (active) | GI50 (HT-29): 0.0809 µM (active)
